In patent publication US20230135501A1, “GENE THERAPY” (UCL BUSINESS LTD, priority 2020, published 2023):

Assays:
Type in all cases: cell-based
[1] = test system: porcine primary RPE cells; assay: POS-induced pseudopod/contractile cup formation, pMLC and POS centring at 30 min in primary porcine RPE cells
Description: Fixation and processing cells and mouse tissue sections was as previously described in Zihni, C. et al (2017). The following antibodies were used: RPE65 mouse monoclonal (Millipore) 1/300 for immuno-fluorescence; p-MLC S19, mouse monoclonal (Cell Signaling Technology) immunofluorescence 1/100 and immunoblotting 1/1000; Dbl(3), rabbit polyclonal (Santa Cruz Biotechnology) immunofluorescence 1/200; MRCKβ, rabbit polyclonal (Santa Cruz Biotechnology) immunofluorescence 1/200 and immunoblotting 1/500; anti-Cdc42-GTP mouse monoclonal (NewEast Biosciences) immunofluorescence 1/50; N-WASP, rabbit polyclonal (Santa Cruz Biotechnology) immunofluorescence and immunoblotting 1/1000; MerTK rabbit monoclonal (Abcam 52968) immunofluorescence 1/100; Integrin αVβ5, mouse monoclonal (Clone P1F6) (Abcam 24694) immunofluorescence 1/100; pFAK Y397, rabbit polyclonal (Invitrogen) immunofluorescence 1/100; pSrc Y416, rabbit polyclonal (Cell Signaling Technology) immunofluorescence 1/100; Phalloidin-Atto 647 reagent was obtained from Sigma and diluted 1/1000. Affinity-purified and cross-adsorbed Alexa488-, Cy3- and Cy5-labelled donkey anti-mouse, rabbit, or goat secondary antibodies were from Jackson ImmunoResearch Laboratories (1/300 diluted from 50% glycerol stocks). Affinity-purified HRP-conjugated goat anti mouse and rabbit, and donkey anti goat secondary antibodies 1/5000 were also from Jackson ImmunoResearch Laboratories (1/5000 diluted from 50% glycerol stocks). For immunofluorescence analysis cells and tissues were mounted using Prolong Gold antifade reagent (Life technologies) and imaging was performed using Zeiss 700 and 710 confocal microscopes and a 64× oil lens/NA1.4. Images were processed using Zeiss Zen 2009 and Adobe Photoshop CS5 and 10 software. Co-immunoprecipitation and immunoblotting were carried out using methods previously described and were repeated at least three times.

Primary porcine RPE = assay: POS/Gas-6 stimulated pseudopod assembly in serum-free primary porcine RPE; conditions: serum-free medium 4 h, 30 min stimulation with POS-FITC, with Gas-6
Description: Primary porcine RPE was cultured in serum-free medium, to eliminate effects of MerTK ligands, for 4 h followed by treatment with either N-WASP or MRCK inhibitor and a 30 min stimulation with POS-FITC in the absence or presence of Gas-6, which links MerTK to POS.

[2] = test system: porcine primary RPE cells; assay: POS phagocytosis (internalization) in primary porcine RPE cells; set-up: ability of RPE cells to internalize POS (confocal z-sections): dose or concentration left out as unconfirmed
Description: Wilcoxon tests also were used where indicated.
The inventors next asked whether MRCKβ is directly involved in POS internalization using porcine primary RPE cells. […] MRCK was not required for POS to attach to the RPE, indicating integrin αVβ5-POS binding was not affected (FIGS. 2b and 2f). POS binding stimulates the formation of extended pseudopods that retract with internalization of POS. […] Thus, MRCKβ controls POS-induced membrane remodelling during phagocytic cup formation and particle internalization.

## Cc1ccc2c(c1)C(=O)C1(O)CCN(c3ccccc3)C1=N2 (stereo not shown) [blebbistatin, Blebbistatin]
[1]; Blebbistatin used at 10 μM
  pseudopod/cup organization: disorganised pseudopods
[1]; POS for 30 minutes
  POS centring at pseudopods/cups: loss of efficient POS centring

## CN(C)C[C@H](O)Cn1c2ccc(Br)cc2c2cc(Br)ccc21 (racemic) [Wiskostatin]
[1]; POS for 30 minutes
  pMLC activity/staining at pseudopods/cups: reduced
[1]; Wiskostatin used at 5 μM
  less F-actin in pseudopods when compared to control cells: approx. 50%
  number of cells forming normal pseudopods: drastic reduction

## O=C(Nc1cn[nH]c1-c1ccccn1)c1nn(C2CCNCC2)cc1Cl [BDP5290]
Primary porcine RPE
  POS-dependent pseudopod assembly: did not inhibit
[2]; GOLD-labelled POS, TEM
  phagocytosis of GOLD-labelled POS (transmission electron microscopy): inhibition of phagocytosis
[2]; POS-FITC 1 h followed by 2 h chase
  ability of RPE cells to internalize POS (confocal z-sections): strongly inhibited
[1]; POS for 30 minutes
  POS centring at pseudopods/cups: un-centred POS
  efficiency of POS binding to RPE cells: unaltered
  pMLC activity/staining at pseudopods/cups: lack pMLC activity
[1]; washout of blebbistatin in the presence of the MRCK inhibitor
  MLC phosphorylation after blebbistatin washout: inhibition of MLC phosphorylation

B1: Gas-6: growth arrest-specific 6, soluble protein which links MerTK to POS (protein, UniProt Q14393 31-678, looked up)
Growth arrest-specific …: ALLPAREATQFLRPRQRRAFQVFEEAKQGHLERECVEELCSREEAREVFENDPETDYFYPRYLDCINKYGSPYTKNSGFATCVQNLPDQCTPNPCDRKGTQACQDLMGNFFCLCKAGWGGRLCDKDVNECSQENGGCLQICHNKPGSFHCSCHSGFELSSDGRTCQDIDECADSEACGEARCKNLPGSYSCLCDEGFAYSSQEKACRDVDECLQGRCEQVCVNSPGSYTCHCDGRGGLKLSQDMDTCEDILPCVPFSVAKSVKSLYLGRMFSGTPVIRLRFKRLQPTRLVAEFDFRTFDPEGILLFAGGHQDSTWIVLALRAGRLELQLRYNGVGRVTSSGPVINHGMWQTISVEELARNLVIKVNRDAVMKIAVAGDLFQPERGLYHLNLTVGGIPFHEKDLVQPINPRLDGCMRSWNWLNGEDTTIQETVKVNTRMQCFSVTERGSFYPGSGFAFYSLDYMRTPLDVGTESTWEVEVVAHIRPAADTGVLFALWAPDLRAVPLSVALVDYHSTKKLKKQLVVLAVEHTALALMEIKVCDGQEHVVTVSLRDGEATLEVDGTRGQSEVSAAQLQERLAVLERHLRSPVLTFAGGLPDVPVTSAPVTAFYRGCMTLEVNRRLLDLDEAAYKHSDITAHSCPPVEPAAA
Primary porcine RPE
  POS-dependent pseudopod assembly: sharp increase
